The test system of assay [1] is (+)-germacrene A hydroxylase. Briefly: Competitive inhibition of hydroxylation by 50 μM (+)-germacrene A or 50 μM α-cubebene. Particulars: amorpha-4,11-diene alcohol (KI 1720), germacrene B alcohol (KI 1700).
In assay [2] the test system is NAD(P)+-dependent dehydrogenase(s). Briefly: Oxidation of alcohols by 150,000 g supernatant of chicory roots with NAD(P)+. It is filed as biochemical, Cichorium intybus L. Here is the method:
It was assumed that this β-nootkatol is an intermediate in the formation of nootkatone. For this reason incubations of 100 μM β-nootkatol were performed at pH 10 with NAD(P)^+and a 150,000 g supernatant of chicory roots, such as described for the conversion of (−)-elema-1,3,11(13)-12-ol and germacra-1(10),4,11(13)-trien-12-ol by NADP^+-dependent dehydrogenases by De Kraker et al. (2001). During incubation the added β-nootkatol was converted for more than 60% into nootkatone in the presence of either 1 mM NADP^+ or 1 mM NAD^+. In the absence of these cofactors conversion still amounted to 25%, whereas the boiled enzyme extract gave no conversion of β-nootkatol. At pH 7.5, enzyme activity was slightlylower, whereas a 150,000 g pellet, as expected, yielded 3-fold less dehydrogenase activity than the corresponding supernatant.
To get some more information about the substrate specificity of the dehydrogenase(s) present in chicory roots, incubations with the 150,000 g supernatant were also performed with 100 μM trans,trans-farnesol as substrate (FIG. 19) in the presence of either NAD^+ or NADP^+. Trans,trans-farnesol was converted up to 60% into a mixture of trans,trans-farnesal and cis,trans-farnesal, and small amounts of farnesoic acid were observed as well.

Assay [3] concerns microsomal pellet from chicory roots. The assay is described as follows: Conversion of (+)-valencene by a microsomal pellet of chicory in the presence of NADPH. Particulars: 100% = hydroxylation rate of β-selinene, 60 min.
Method: The enzyme suspension was divided in 1 mL aliquots and incubated with 50 μM (+)-valencene in the presence of a 1 mM NADPH-regenerating system that consisted of 1 mM NADPH, 5 mM glucose-6-phosphate, and 1.2 IU glucose-6-phosphate cehydrogenase. The initial concentration of substrate in each assay was 45 μM and all experiments were done in duplicate. To the blank assays no NADPH regenerating system was added, so that cytochrome P450 enzymes (including the (+)-germacrene A hydroxylase) were not active. After 60 minutes the incubations were stopped by storing them at −20° C. in a freezer.

Several values for one entry are separate records, joined by “and”; a condition that tells them apart may be missing. Identical values can stand only once.

For `CC(C)=C1C/C=C(\C)CC/C=C(\C)CC1` [germacrene B], the “Inhibition (%) ± SD, Germacrene A, second product” value in assay [1] (50 μM (+)-germacrene A added) came out at 100.0%. For the same molecule, the “Inhibition (%) ± SD, α-Cubebene, second product” value in assay [1] (50 μM α-cubebene added) amounted to 27.3 ± 10%.

On to `CC(C)=CCC/C(C)=C/CC/C(C)=C/CO` [Trans,trans-farnesol, trans,trans-farnesol], for which, in assay [2] (100 μM substrate, NAD+ or NADP+, 150,000 g supernatant), the “Conversion into a mixture of trans,trans-farnesal and cis,trans-farnesal” value is reported as “up to 60%”. Moreover, in assay [2] (pH 7.0, maximum at pH 10), the “Conversion of farnesol into farnesal, share of maximum enzyme activity” value came to 30%.

With `C=C(C)[C@@H]1CCC2=C[C@@H](O)C[C@@H](C)[C@]2(C)C1` [β-nootkatol], in assay [2] (100 μM substrate, pH 10, 1 mM NADP+ or 1 mM NAD+, 150,000 g supernatant), the Conversion into nootkatone result was “more than 60%”. Further, the “Conversion into nootkatone in the absence of cofactors” value in assay [2] (100 μM substrate, pH 10, no NAD(P)+) was 25%.

With `C=C(C)[C@@H]1CCC2=CCC[C@@H](C)[C@]2(C)C1` [(+)-valencene], in assay [3], the “Relative conversion to nootkatone” value is 24.4% and 24.4 ± 1.1%; the “Relative conversion to valencen-12-ol” value was 2.61% and 2.6 ± 0.1%.

(Values after US7214507B2, “Plant enzymes for bioconversion” (Plant Research International B.V., priority 2001, dated 2007).)
